Read-outs that look alike come from different tables or passages of the source.
How the values were obtained:
[1] = Chronic liver disease: jaundice and systemic toxicity; parameters: species or system human; settings: in vivo
Rauscher MuLV = test: Anti-viral response to Rauscher MuLV; type: in vivo, mice; settings: 50 μg/kg
Excerpt: Innate mechanisms of anti-viral immunity are important to survival of the host. The Rauscher murine leukemia virus (MuLV) is an example of a highly virulent animal retrovirus infection, first isolated and characterized by Dr. Rauscher from BALB/c mouse tissues in 1962. […] The virus employed in present GLP/blinded study was a murine leukemia complex known to induce progressive erythroleukemia in mice (i.e., Rauscher MuLV and replication-defective Rauscher spleen focus-forming virus). Disease manifested within about 6 days with death by about 50 days. Measurements of splenomegaly, blood reverse transcriptase, virus plaque assays (i.e., XC-plaque assay for viremia using SC-1 host cells) and serum anti-viral antibody titers were used to assess infection. Spleens achieved about 2.0 grams in weight within 21 days of infection, as compared with a normal spleen weights in an uninfected animals of about 0.1 gram.
Mice were inoculated with Rauscher MuLV complex (0.1 ml/7.8×10^4 PFU/mL) on day 0 and sacrificed on day 21. Test groups were comprised of 10 mice and control groups 6 mice. Control articles included saline and AZT (in drinking water at about 1.25 mg/mouse/day≈63 mg/kg/day/mouse). […] A non-infected group of mice was also sacrificed on day 21 to provide normal control values.
In EXAMPLE 38, SC-1 cells were originally derived from murine embryos, and XC cells (a rat tumor cell line induced by Rous Sarcoma Virus) were obtained from the ATCC in Rockville, Md.

[2] = Bronchial asthma (Protocol A); type: in vivo, human
Experimental: Sixty five patients (65) with bronchial asthma, including both adults and children, were entered into the trial: 37 patients were treated with L-Glu-L-Trp and 28 (controls) received conventional therapy alone. L-Glu-L-Trp was administered im in a single daily dose of 1 μg/kg on each of 5-10 consecutive days. […] In certain patients it was possible to eliminate the use of prescribed steroids.

[3] = Frequently ill children with respiratory infection, asthma and allergy (Protocol C); type: in vivo, human
Chronic prostatitis = type: in vivo, human
Excerpt: Thirty four patients (aged 22 to 45 years) with chronic prostatitis were entered into Group 1 of this trial during the acute phase of their disease. Diagnosis was based on medical history, and physical examination of the prostate (palpated through the rectum). Laboratory testing included microscopic examination of prostate gland secretions, spermography and urinalysis. All patients had previously received full courses of unsuccessful therapy with antibacterial agents, and additional individualized therapy including uroantiseptics, spasmolytic, ganglion blockers, novocain paraprostate and presacral blocks, ultrasound, and prostate gland massage. Success of any individualized therapy was only partial and short-term. […]
Peripheral blood samples were collected for laboratory testing 10 days after the last injection of L-Glu-L-Trp. […]

Bone fractures = test: Bone fractures; parameters: species or system human; settings: in vivo
Experimental: L-Glu-L-Trp was applied to 44 patients with bone fractures of various origin. The control group comprised 28 patients. L-Glu-L-Trp was administered intramuscularly or intranasally in a single dose of 100 μg daily for 10 days.

Adult thymectomy = test: Adult thymectomy; parameters: species or system human; settings: in vivo
Experimental: A total of 12 thymectomized patients were treated with L-Glu-L-Trp. Prior to therapy, these individuals had experienced frequent serious infections including upper respiratory infections. L-Glu-L-Trp was administered in a single dose of 100 μg daily for 10 days and repeated every 4-6 months.

[4] = After L-Glu-L-Trp, pre-treatment value Decreased (n = 14)
[5] = Group 1, After L-Glu-L-Trp, 10 days after the last injection
[6] = psoriasis Group 1, after L-Glu-L-Trp Therapy (n = 30)
[7] = psoriasis, after Combination L-Glu-L-Trp Therapy (n = 30)
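For Patients with improvement in this document: psoriasis patients, 30 per group, with disease activity tracked through laboratory and clinical measures, set against a group receiving traditional therapy alone.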
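For Patients with significant improvement in this document: psoriasis patients, 30 per group, with disease activity tracked through laboratory and clinical measures, set against a group receiving traditional therapy alone.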
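For Patients with total recovery in this document: psoriasis patients, 30 per group, with disease activity tracked through laboratory and clinical measures, set against a group receiving traditional therapy alone.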
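For Shorter length of hospital stay vs Group 2 in this document: psoriasis patients, 30 per group, with disease activity tracked through laboratory and clinical measures, set against a group receiving traditional therapy alone.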

For L-Glu-L-Trp, the “Seropositive patients with a positive response to therapy” value [1] was 21 of the 29, the “Seropositive patients with no detectable change” value [1] was 8 and the Viremia (Rauscher MuLV) was “significantly decreased viremia”. The “Patients with disappearance of symptoms of food and drug allergies” value ([2]; in vivo) was “more than half”, the “Decrease in the incidence of bronchial asthmatic attacks” value ([2]; year long follow-up) was 4.2 fold and the “Children with a decrease in the number of respiratory infections” value ([3]; 6-12 months) was 92.9%. For the same substance, the “T-lymphocytes in peripheral blood” value ([3]; after first course) was “statistically significant increase was noted in both the absolute number and percentage of T-lymphocytes”, the “Reduction in attacks of bronchial asthma” value ([3]; asthma patients) was 4.2 fold and the “Average reduction in the number of infections” value ([3]; in vivo) was 3.6 fold. For the same substance, the “Decrease of average length of illness” value ([3]; in vivo) was 4 to 5 days, the “Patients in whom food allergies disappeared” value ([3]; in vivo) was 67.8% and the IgG (Chronic prostatitis; After L-Glu-L-Trp, pre-treatment value Decreased (n = 2)) was 7.8 ± 1.1 g/L. For the same substance, the “Phagocytes (% of PBL)” value (Chronic prostatitis; After L-Glu-L-Trp, pre-treatment value Decreased (n = 5)) was 36.6 ± 8.5 % of PBL, the “Imm. Cmplx.” value (Chronic prostatitis; After L-Glu-L-Trp, pre-treatment value Decreased (n = 8)) was 0.07 ± 0.01 units and the B-Lymphocytes (Chronic prostatitis; After L-Glu-L-Trp, pre-treatment value Decreased (n = 10)) was 26.0 ± 2.9. The “Complement (CH50)” value (Chronic prostatitis; [4]) was 34.2 ± 0.9, the “T-Lymphocytes (%)” value (Chronic prostatitis; [4]) was 37.9 ± 2.2% and the IgM (Chronic prostatitis; After L-Glu-L-Trp, pre-treatment value Increased (n = 1)) was 3.44 g/L. For the same substance, the “T-Lymphocytes (%)” value (Chronic prostatitis; After L-Glu-L-Trp, pre-treatment value Increased (n = 2)) was 40.0 ± 15.5%, the IgG (Chronic prostatitis; After L-Glu-L-Trp, pre-treatment value Increased (n = 6)) was 14.7 ± 1.4 g/L and the “Complement (CH50)” value (Chronic prostatitis; After L-Glu-L-Trp, pre-treatment value Increased (n = 7)) was 30.7 ± 0.9. The B-Lymphocytes (Chronic prostatitis; After L-Glu-L-Trp, pre-treatment value Increased (n = 8)) was 24.8 ± 2.9, the “Imm. Cmplx.” value (Chronic prostatitis; After L-Glu-L-Trp, pre-treatment value Increased (n = 19)) was 0.08 ± 0.01 units and the “Phagocytes (% of PBL)” value (Chronic prostatitis; After L-Glu-L-Trp, pre-treatment value Increased (n = 26)) was 37.7 ± 3.9 % of PBL. For the same substance, the “Phagocytes (% of PBL)” value (Chronic prostatitis; After L-Glu-L-Trp, pre-treatment value Normal (n = 3)) was 58.6 ± 18 % of PBL, the “Imm. Cmplx.” value (Chronic prostatitis; After L-Glu-L-Trp, pre-treatment value Normal (n = 7)) was 0.08 ± 0.01 units and the “Complement (CH50)” value (Chronic prostatitis; After L-Glu-L-Trp, pre-treatment value Normal (n = 13)) was 29.3 ± 0.9. For the same substance, the B-Lymphocytes (Chronic prostatitis; After L-Glu-L-Trp, pre-treatment value Normal (n = 16)) was 29.2 ± 2.2, the “T-Lymphocytes (%)” value (Chronic prostatitis; After L-Glu-L-Trp, pre-treatment value Normal (n = 18)) was 50.0 ± 3.6% and the IgG (Chronic prostatitis; After L-Glu-L-Trp, pre-treatment value Normal (n = 26)) was 12.5 ± 0.7 g/L. The IgM (Chronic prostatitis; After L-Glu-L-Trp, pre-treatment value Normal (n = 33)) was 2.08 ± 0.12 g/L, the IgA (Chronic prostatitis; After L-Glu-L-Trp, pre-treatment value Normal (n = 34)) was 2.2 ± 0.12 g/L and the ““Unsatisfactory” results” value (Chronic prostatitis; Group 1) was “No “unsatisfactory” results were recorded”. The “B-Lymphocytes: % of PBL” value (Chronic prostatitis; [5]) was 27.2 ± 1.4 % of PBL, the “B-Lymphocytes: No.” value (Chronic prostatitis; [5]) was 0.54 ± 0.1 10^9/L and the “Complement (CH50)” value (Chronic prostatitis; [5]) was 29.4 ± 0.5. It also gave an IgA (Chronic prostatitis; [5]) of 2.2 ± 0.1 g/L, an IgG (Chronic prostatitis; [5]) of 12.5 ± 0.6 g/L and an IgM (Chronic prostatitis; [5]) of 2.1 ± 0.1 g/L. For the same substance, the “Immune Complexes” value (Chronic prostatitis; [5]) was 0.80 ± 0.004 units, the “Phagocytes: % PBL” value (Chronic prostatitis; [5]) was 39.4 ± 3.5 % PBL and the “T-Lymphocytes: % of Lym” value (Chronic prostatitis; [5]) was 44.4 ± 2.3 % of Lym. The “T-Lymphocytes: No.” value (Chronic prostatitis; [5]) was 0.88 ± 0.1 10^9/L, the Clinical outcome (Bone fractures) was “prevented the development of infectious complications, reduced pain syndrome and treatment duration” and the Clinical outcome (Adult thymectomy) was “reduction of infectious disorders”. The Patients with improvement (10 days) was 7%, the “Patients with significant improvement” value (10 days) was 60% and the “Patients with total recovery” value (10 days) was 33%. For the same substance, the “Shorter length of hospital stay vs Group 2” value (average) was 4.2 days, the “Decrease in erythema of skin eruptions sooner than controls” value (in vivo) was 2.8 days and the “Disappearance of psoriatic rash sooner than controls” value (in vivo) was 7.1 days. For the same substance, the “Earlier recovery of disease activity than conventional therapy” value (in vivo) was 2 to 3 days, the C3 complement [6] was 926 ± 28.4 µg/mL and the Ceruloplasmin [6] was 366 ± 11.4 µg/mL. For the same substance, the “Clotting time (citrated whole blood-recalcified)” value [6] was 141 ± 2.4, the FDP [6] was 23 ± 1.8 µg/mL and the “Fibrinogen Concentration” value [6] was 3.4 ± 0.1 g/L. The “Fibrinolytic Activity” value [6] was 200 ± 2.7 min, the Kaolin-Cephalin clotting time [6] was 58 ± 0.3 and the Orosomucoid [6] was 829 ± 13.2 µg/mL. It also gave a PT [6] of 23 ± 0.2, a Prealbumin [6] of 357 ± 3.8 µg/mL and a Thrombotest [6] of 33 ± 0.5 units. The Transferrin [6] was 3.36 ± 0.08 µg/mL, the α2-macroglobulin [6] was 2.5 ± 0.01 and the “Number of Patients Having a Clinical Outcome as: Considerable Improvement” value (psoriasis Group 1, day 8-10) was 18/30. The “Number of Patients Having a Clinical Outcome as: Improvement” value (psoriasis Group 1, day 8-10) was 2/30, the “Number of Patients Having a Clinical Outcome as: No Improvement” value (psoriasis Group 1, day 8-10) was 3/30 and the “Number of Patients Having a Clinical Outcome as: Recovery” value (psoriasis Group 1, day 8-10) was 7/30. For the same substance, the “Patients with Considerable Improvement (%)” value (psoriasis Group 1, day 8-10) was “(60%)”, the “Patients with Improvement (%)” value (psoriasis Group 1, day 8-10) was “(7%)” and the “Patients with No Improvement (%)” value (psoriasis Group 1, day 8-10) was “(10%)”. For the same substance, the “Patients with Recovery (%)” value (psoriasis Group 1, day 8-10) was “(23%)”, the B-Lymphocytes [7] was 0.53 ± 0.02 ×10^9/L and the “B-Lymphocytes % Normal Value” [7] was “(115%)”. For the same substance, the IgA [7] was 138 ± 6.8, the “IgA % Normal Value” [7] was “(140%)” and the IgG [7] was 187 ± 1.9 mg/mL. The “IgG % Normal Value” [7] was “(140%)”, the IgM [7] was 193 ± 9.6 and the “IgM % Normal Value” [7] was “(152%)”. The Leukocytes [7] was 9.0 ± 1.4 ×10^9/L, the “Leukocytes % Normal Value” [7] was “(155%)” and the Lymphocytes [7] was 2.5 ± 0.09 ×10^9/L. For the same substance, the “Lymphocytes % Normal Value” [7] was “(144%)”, the T-Lymphocytes [7] was 0.94 ± 0.07 ×10^9/L and the “T-Lymphocytes % Normal Value” [7] was “(106%)”.

From patent US6368788B1 (priority 1987, dated 2002)
